Data as given in patent publication EP4707280A1, “1,4-CINEOLE DERIVATIVE AND INTERMEDIATE THEREOF, HERBICIDE CONTAINING SAID DERIVATIVE AS ACTIVE INGREDIENT, METHOD FOR USING HERBICIDE, AND METHOD FOR PREPARING AGROCHEMICAL COMPOSITION” (HOKKO CHEMICAL INDUSTRY CO., LTD., priority 2023, dated 2024).

Tests used:
Format in all cases: in vivo
Echinochloa crus-galli [1] = assay: Test Example 3: herbicidal effect test by soil application in upland field; settings: 120 g per 10 ares, sprayed one day after sowing, 14 days after application; for inhibition at 1200 g/ha: Echinochloa crus-galli, read-out: weed inhibition rate
How it was run: (§1)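 Pre-emergence test: seeds mixed into top 1 cm of alluvial loam upland soil in pots; emulsifiable concentrate diluted in water sprayed on soil one day after sowing at 100 L/10 a, 120 g a.i./10 a. Weed inhibition rate (%) scored at 14 days, in duplicate.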

Digitaria ciliaris [2] = assay: as above; settings: 120 g per 10 ares, sprayed one day after sowing, 14 days after application
How it was run: as §1

Echinochloa crus-galli [3] = assay: Test Example 7: herbicidal effect test by soil application in upland field (low dose); settings: 7.5 g per 10 ares, sprayed one day after sowing, 14 days after application
How it was run: (§2)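 Duplicate pots of alluvial loam, seeds incorporated in the surface 1 cm. Soil surface sprayed 1 d after sowing (EC in water, 100 L/10 a; 7.5 g a.i./10 a). Endpoint: % inhibition, day 14.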

Digitaria ciliaris [4] = assay: as above; settings: 7.5 g per 10 ares, sprayed one day after sowing, 14 days after application
How it was run: as §2

Scirpus juncoides [5] = assay: Test Example 2: herbicidal effect test by application during growth period of paddy rice; settings: 120 g per 10 ares; applied seven days after sowing, flooded pots; 14 days after application
How it was run: (§3)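 Greenhouse pots of flooded paddy soil, seeded shallowly with 30 seeds per weed, are treated on day 7 by dropper with diluted emulsifiable concentrate equal to 120 g a.i./10 a. Duplicate pots are scored for inhibition rate 14 days post-application.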

Monochoria vaginalis [6] = assay: as above; settings: 120 g per 10 ares, applied seven days after sowing, flooded pots, 14 days after application
How it was run: as §3

[7] = test system: Echinochloa crus-galli var. formosensis; assay: as above; settings: 120 g per 10 ares, applied seven days after sowing, flooded pots, 14 days after application; for inhibition at 1200 g/ha: Echinochloa crus-galli, read-out: weed inhibition rate
How it was run: as §3

Digitaria ciliaris [8] = assay: Test Example 4: herbicidal effect test by stem and leaf treatment in upland field; settings: 120 g per 10 ares, sprayed seven days after sowing, upland soil, 14 days after application; for inhibition at 1200 g/ha: Digitaria ciliaris, read-out: weed inhibition rate
[9] = test system: Echinochloa crus-galli var. formosensis; assay: Test Example 5: herbicidal effect test by soil application in paddy rice (low dose); settings: 7.5 g per 10 ares, applied immediately after sowing, flooded pots, 14 days after application; for inhibition at 75 g/ha: Echinochloa crus-galli, soil, 336 h, read-out: weed inhibition rate
How it was run: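 7.5 g a.i./10 a applied by dropper into ~3 cm floodwater immediately post-sowing (seeds 0–1 cm, 30 per species; puddled fertilized paddy soil, glasshouse). Duplicates; day-14 inhibition %.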

Monochoria vaginalis [10] = assay: Test Example 1: herbicidal effect test by soil application in paddy rice; settings: 120 g active ingredient per 10 ares, applied immediately after sowing, flooded pots, 14 days after application; for pest or weed control at 1200 g/ha: Pontederia vaginalis, soil, 336 h, read-out: weed inhibition rate
Protocol: (§4) Wagner pots with an area of […] were filled with paddy soil, followed by addition of water and incorporation of chemical fertilizer (N:P:K = 16:16:16), after which puddling was performed. After that, seeds of Echinochloa crus-galli var. formosensis, broad-leaved weeds (Lindernia pyxidaria and Monochoria vaginalis), and Scirpus juncoides were sown at a depth of 0 cm to 1 cm, 30 seeds each. Immediately after sowing, the pots were flooded and a water depth of approximately 3 cm was maintained. Subsequent management was conducted in a glass greenhouse. Immediately thereafter, an emulsifiable concentrate prepared according to Formulation Example 5 using the compound shown below was diluted with water, and a specified amount of the diluted solution was applied by dropper. The amount of the active ingredient to be applied was equivalent to 120 g per 10 ares.
(§5) The present test was conducted in duplicate for each chemical concentration group, and the weed inhibition rate (%) was determined 14 days after chemical application using the following formula (Math. 1). [formula]

[11] = test system: Echinochloa crus-galli var. formosensis; assay: Test Example 6: herbicidal effect test by application during growth period of paddy rice (low dose); settings: 7.5 g per 10 ares, applied seven days after sowing, flooded pots, 14 days after application; for inhibition at 75 g/ha: Echinochloa crus-galli, read-out: weed inhibition rate
How it was run: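 Paddy-soil pots, flooded ~3 cm after sowing weed seeds at 0-1 cm depth, greenhouse-grown. Seven days after sowing, diluted emulsifiable concentrate applied by dropper at 7.5 g active ingredient per 10 ares. Weed inhibition rate (%) scored 14 days after application, in duplicate.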

Echinochloa crus-galli [12] = assay: Test Example 8: herbicidal effect test by stem and leaf treatment in upland field (low dose); settings: 7.5 g per 10 ares, sprayed seven days after sowing, upland soil, 14 days after application; for inhibition at 75 g/ha: Echinochloa crus-galli, read-out: weed inhibition rate
Digitaria ciliaris [13] = assay: as above; settings: 7.5 g per 10 ares, sprayed seven days after sowing, upland soil, 14 days after application
Scirpus juncoides [14] = assay: Test Example 1: herbicidal effect test by soil application in paddy rice; settings: 120 g active ingredient per 10 ares, applied immediately after sowing, flooded pots, 14 days after application; for pest or weed control at 1200 g/ha: Schoenoplectiella juncoides, soil, 336 h, read-out: weed inhibition rate
How it was run: (§6)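 Soil-applied test under flooded paddy conditions (~3 cm water) in a glass greenhouse. Seeds were sown shallow (0–1 cm, 30 per species), then compound was dripped in as diluted emulsifiable concentrate at 120 g a.i./10 a.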

[15] = test system: Echinochloa crus-galli var. formosensis; assay: as above; settings: 120 g active ingredient per 10 ares, applied immediately after sowing, flooded pots, 14 days after application; for pest or weed control at 1200 g/ha: Echinochloa crus-galli, soil, 336 h, read-out: weed inhibition rate
How it was run: as §6

Echinochloa crus-galli [16] = assay: Test Example 4: herbicidal effect test by stem and leaf treatment in upland field; settings: 120 g per 10 ares, sprayed seven days after sowing, upland soil, 14 days after application; for inhibition at 1200 g/ha: Echinochloa crus-galli, read-out: weed inhibition rate
Amaranthus viridis = assay: Test Example 3: herbicidal effect test by soil application in upland field; settings: 120 g per 10 ares, sprayed one day after sowing, 14 days after application; for inhibition at 1200 g/ha: Amaranthus viridis, read-out: weed inhibition rate
How it was run: as §1

Chenopodium album = assay: as above; settings: 120 g per 10 ares, sprayed one day after sowing, 14 days after application, read-out: weed inhibition rate
How it was run: as §1

Lindernia pyxidaria = assay: Test Example 1: herbicidal effect test by soil application in paddy rice; settings: 336 h, 120 g active ingredient per 10 ares, applied immediately after sowing, flooded pots, 14 days after application, read-out: weed inhibition rate
Protocol: as §4, §5

Scirpus juncoides [17] = assay: Test Example 5: herbicidal effect test by soil application in paddy rice (low dose); settings: Schoenoplectiella juncoides, 336 h, 7.5 g per 10 ares, applied immediately after sowing, flooded pots, 14 days after application, read-out: weed inhibition rate
Protocol: as §5
as §4, with “(Monochoria” for “(Lindernia pyxidaria and Monochoria”, “7.5” for “120”
The present test was conducted in duplicate for each chemical concentration group, and the herbicidal effect was evaluated 14 days after chemical application using the same criteria as in Test Example 1.

[18] = Digitaria ciliaris, read-out: weed inhibition rate

CC(C)[C@]12C[C@@H](OCc3ccccc3F)[C@](C)(C[C@@H]1Cl)O2 [1-12]
≥ 80%: weed inhibition rate (Echinochloa crus-galli [1]) | weed inhibition rate (Digitaria ciliaris [2]) | weed inhibition rate (Echinochloa crus-galli [3]) | weed inhibition rate (Digitaria ciliaris [4]) | weed inhibition rate (Scirpus juncoides [5]) | weed inhibition rate (Monochoria vaginalis [6]) | weed inhibition rate [7] | weed inhibition rate (Digitaria ciliaris [8]) | weed inhibition rate [9] | weed inhibition rate (Monochoria vaginalis [10]) | weed inhibition rate [11] | weed inhibition rate (Echinochloa crus-galli [12]) | weed inhibition rate (Digitaria ciliaris [13]) | weed inhibition rate (Scirpus juncoides [14]) | weed inhibition rate [15] | weed inhibition rate (Echinochloa crus-galli [16])

CCOC(C)O[C@H]1C[C@]2(C)O[C@@]1(C(C)C)C[C@H]2OCc1ccccc1F (stereo partly drawn) [1-213, (1R,28,4S,5R)-2-(1-ethoxyethoxy)-5-((2-fluorobenzyl)oxy)-1-isopropyl-4-methyl-7-oxabicyclo[2.2.1]heptane]
≥ 80%: weed inhibition rate (Amaranthus viridis) | weed inhibition rate (Echinochloa crus-galli [1]) | weed inhibition rate (Digitaria ciliaris [2]) | weed inhibition rate (Echinochloa crus-galli [3]) | weed inhibition rate (Digitaria ciliaris [4]) | weed inhibition rate (Scirpus juncoides [5]) | weed inhibition rate [7] | weed inhibition rate (Digitaria ciliaris [8]) | weed inhibition rate [9] | weed inhibition rate (Monochoria vaginalis [10]) | weed inhibition rate [11] | weed inhibition rate (Echinochloa crus-galli [12]) | weed inhibition rate (Scirpus juncoides [14]) | weed inhibition rate [15] | weed inhibition rate (Echinochloa crus-galli [16])

CC(C)[C@]12C[C@@H](OCc3ccccc3F)[C@](C)(CC1c1ccccc1)O2 (stereo partly drawn) [1-322, (1S,2R,4R)-2-((2-fluorobenzyl)oxy)-4-isopropyl-1-methyl-5-phenyl-7-oxabicyclo[2.2.1]heptane]
≥ 80%: inhibition at 1200 g/ha (Echinochloa crus-galli [1]) | inhibition at 1200 g/ha (Chenopodium album) | inhibition at 1200 g/ha [7] | inhibition at 1200 g/ha (Digitaria ciliaris [8]) | inhibition at 75 g/ha [9] | inhibition at 75 g/ha [11] | inhibition at 75 g/ha (Echinochloa crus-galli [12]) | inhibition at 75 g/ha (Digitaria ciliaris [13]; [18]) | pest or weed control at 1200 g/ha [15] | inhibition at 1200 g/ha (Echinochloa crus-galli [16])

CC(C)[C@]12C[C@@H](OCCOCc3ccccc3)[C@](C)(C[C@@H]1Br)O2 [1-725, (1S,2R,4R,5S)-5-bromo-1-methyl-2-(2-phenylmethoxyethoxy)-4-isopropyl-7-oxabicyclo[2.2.1]heptane]
≥ 80%: inhibition at 1200 g/ha (Amaranthus viridis) | inhibition at 1200 g/ha [7] | inhibition at 1200 g/ha (Echinochloa crus-galli [16])

CC(C)[C@]12C[C@@H](OCc3ccccc3F)[C@](C)(CC1c1ccccc1F)O2 (stereo partly drawn) [1-922, (1S,2R,4R)-2-((2-fluorobenzyl)oxy)-5-(2-fluorophenyl)-4-isopropyl-1-methyl-7-oxabicyclo[2.2.1]heptane]
≥ 80%: inhibition at 1200 g/ha (Echinochloa crus-galli [1]) | inhibition at 1200 g/ha (Monochoria vaginalis [6]; Pontederia vaginalis, read-out: weed inhibition rate) | inhibition at 1200 g/ha [7] | inhibition at 1200 g/ha (Digitaria ciliaris [8]) | inhibition at 75 g/ha [9] | pest or weed control at 1200 g/ha (Lindernia pyxidaria) | pest or weed control at 1200 g/ha (Monochoria vaginalis [10]) | pest or weed control at 1200 g/ha (Scirpus juncoides [14]) | pest or weed control at 1200 g/ha [15] | inhibition at 1200 g/ha (Echinochloa crus-galli [16])

CC(C)[C@]12C[C@@H](OCc3ccccc3F)[C@](C)(CC1c1cccc(F)c1)O2 (stereo partly drawn) [1-923, (1S,2R,4R)-2-((2-fluorobenzyl)oxy)-5-(3-fluorophenyl)-4-isopropyl-1-methyl-7-oxabicyclo[2.2.1]heptane]
≥ 80%: inhibition at 1200 g/ha (Echinochloa crus-galli [1]) | inhibition at 75 g/ha (Scirpus juncoides [17]) | inhibition at 1200 g/ha [7] | pest or weed control at 1200 g/ha (Scirpus juncoides [14]) | pest or weed control at 1200 g/ha [15] | inhibition at 1200 g/ha (Echinochloa crus-galli [16])

Cc1cccc(C2C[C@]3(C)O[C@@]2(C(C)C)C[C@H]3OCc2ccccc2F)c1 (stereo partly drawn) [1-926, (1S,2R,4R)-2-((2-fluorobenzyl)oxy)-4-isopropyl-1-methyl-5-(m-tolyl)-7-oxabicyclo[2.2.1]heptane]
≥ 80%: inhibition at 1200 g/ha (Amaranthus viridis) | inhibition at 1200 g/ha (Echinochloa crus-galli [1]) | inhibition at 1200 g/ha (Chenopodium album) | inhibition at 1200 g/ha [7] | pest or weed control at 1200 g/ha (Scirpus juncoides [14]) | pest or weed control at 1200 g/ha [15]

COc1ccc(CO[C@@H]2C[C@]3(C(C)C)O[C@@]2(C)CC3=O)cc1 [2-346, (1R,4S,5R)-1-isopropyl-5-((4-methoxybenzyl)oxy)-4-methyl-7-oxabicyclo[2.2.1]heptan-2-one]
≥ 80%: inhibition at 1200 g/ha (Amaranthus viridis) | inhibition at 1200 g/ha [7]

Cc1ccc(CO[C@@H]2C[C@]3(C(C)C)O[C@@]2(C)CC3=O)cc1 [2-350, (1R,4S,5R)-1-isopropyl-4-methyl-5-[(4-methylbenzyl)oxy]-7-oxabicyclo[2.2.1]heptan-2-one]
≥ 80%: inhibition at 1200 g/ha (Echinochloa crus-galli [1]) | inhibition at 1200 g/ha (Digitaria ciliaris [2]; [18]) | inhibition at 1200 g/ha (Chenopodium album) | inhibition at 1200 g/ha [7] | inhibition at 1200 g/ha (Digitaria ciliaris [8]) | inhibition at 75 g/ha [9] | pest or weed control at 1200 g/ha (Monochoria vaginalis [10]) | inhibition at 75 g/ha [11] | inhibition at 75 g/ha (Echinochloa crus-galli [12]) | pest or weed control at 1200 g/ha (Scirpus juncoides [14]) | pest or weed control at 1200 g/ha [15] | inhibition at 1200 g/ha (Echinochloa crus-galli [16])
